Assay results: patent US20120214862A1, “MODULATION OF FACTOR 7 EXPRESSION” (ISIS Pharmaceuticals, Inc., priority 2009, published 2012)
In the oligonucleotide strings, read from the 5' end, every base follows the letter of its sugar. An asterisk marks phosphorothioate; unmarked linkages are phosphodiester. Other units and linkages are bracketed, terminal groups are in braces. A string of capitals states the bases alone. e = 2'-O-(2-methoxyethyl) (MOE); [5mC] = 5-methylcytosine; d = 2'-deoxy (DNA)

How the values were obtained:
Type in all cases: cell-based
human Factor 7 mRNA [1] = assay: Inhibition of human Factor 7 mRNA by 2-10-2 MOE shortmers in HepB3 cells, electroporation, 1,000 nM; conditions: electroporation, 1,000 nM oligonucleotide, approximately 24 hours, relative to untreated control cells
Excerpt: Short antisense oligonucleotides (shortmers) were designed to target a Factor 7 nucleic acid. The shortmers in Table 17 were designed as 2-10-2 MOE gapmers. The gapmers are 14 nucleotides in length, wherein the central gap segment is comprised of 10 2′-deoxynucleotides and is flanked on both sides (in the 5′ and 3′ directions) by wings comprising 2 nucleotides each. Each nucleotide in the 5′ wing segment and each nucleotide in the 3′ wing segment has a 2′-MOE modification. The internucleoside linkages throughout each gapmer are phosphorothioate (P═S) linkages. All cytidine residues throughout each gapmer are 5-methylcytidines.
Shortmers were evaluated for their ability to reduce human Factor 7 mRNA in HepB3 cells and compared with one 5-10-5 chimeric oligonucleotide from Table 16, ISIS 407939. HepB3 cells at a density of 20,000 cells per well in a 96-well plate were transfected using electroporation with 1,000 nM of antisense oligonucleotide. After a treatment period of approximately 24 hours, RNA was isolated from the cells and Factor 7 mRNA levels were measured by real-time RT-PCR, as described herein. Factor 7 mRNA levels were adjusted according to total RNA content as measured by RIBOGREEN®. Results are presented in Table 17 as percent inhibition of Factor 7 mRNA, relative to untreated control cells. ISIS 407939 is the first oligonucleotide in […] to which the shortmers were compared, and is marked by an asterisk (*).

human Factor 7 mRNA [2] = assay: Antisense inhibition of human Factor 7 mRNA in HepB3 cells, lipofectin, 50 nM, real-time RT-PCR; conditions: HepB3 cells
Outline: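 Percent inhibition of Factor 7 mRNA, relative to untreated control, comes from real-time RT-PCR with RIBOGREEN normalization, using primer probe set RTS 2927 in some runs. RNA was taken roughly 24 h after lipofectin delivery of 50 nM oligonucleotide into HepB3 cells.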

human Factor 7 mRNA [3] = assay: Dose-dependent antisense inhibition of human Factor 7 in HepB3 cells, transfection with lipofectin; conditions: HepB3, lipofectin, ~16 h
Protocol: Cells were plated at a density of 4,000 cells per well and treated with lipofectin reagent with 3.125 nM, 6.25 nM, 12.5 nM, 25 nM, 50 nM, and 100 nM concentrations of antisense oligonucleotide, as indicated in Table 3. After a treatment period of approximately 16 hours, RNA was isolated from the cells and Factor 7 mRNA levels were measured by real-time RT-PCR, as described herein. Human Factor 7 primer probe set RTS 2927 (forward sequence: […], incorporated herein as SEQ ID NO: 164; reverse sequence: […], incorporated herein as SEQ ID NO: 165; probe sequence: TGGGTGGTCTCCGCGGCCX, incorporated herein as SEQ ID NO: 166) was used to measure mRNA levels. Factor 7 mRNA levels were adjusted according to total RNA content as measured by RIBOGREEN®. Results are presented as percent inhibition of Factor 7, relative to untreated control cells.
Cells were plated at a density of 4,000 cells per well and transfected using lipofectin reagent with 6.25 nM, 12.5 nM, 25.0 nM, 50.0 nM, and 100.0 nM concentrations of antisense oligonucleotide, as indicated in Table 7. After a treatment period of approximately 16 hours, RNA was isolated from the cells and Factor 7 mRNA levels were measured by real-time RT-PCR, as described herein. Human Factor 7 primer probe set RTS 2927 was used to measure mRNA levels. Factor 7 mRNA levels were adjusted according to total RNA content as measured by RIBOGREEN®. Results are presented as percent inhibition of Factor 7, relative to untreated control cells.
Cells were plated at a density of 4,000 cells per well and transfected using lipofectin reagent with 3.125 nM, 6.25 nM, 12.5 nM, 25 nM, 50 nM, and 100 nM concentrations of antisense oligonucleotide, as specified in Table 14. After a treatment period of approximately 16 hours, RNA was isolated from the cells and Factor 7 mRNA levels were measured by quantitative real-time PCR. Human Factor 7 primer probe set RTS 2927 was used to measure mRNA levels. Factor 7 mRNA levels were adjusted according to total RNA content, as measured by RIBOGREEN®. Results are presented as percent inhibition of Factor 7, relative to untreated control cells.

[4] = lipofectin, 50 nM antisense oligonucleotide, approximately 24 hours, primer probe set RTS 2927, relative to untreated control

With “435649 (antisense eA*eG*dG*d[5mC]*dA*dG*dA*dA*dG*d[5mC]*dA*dG*eA*eT) [compound 435649]” the “% inhibition of human Factor 7 mRNA” value (human Factor 7 mRNA [1]) was 21%.

With “435640 (antisense eT*eG*dT*dA*dA*dG*dA*dA*dA*dT*d[5mC]*d[5mC]*eA*eG) [compound 435640]” the “% inhibition of human Factor 7 mRNA” value (human Factor 7 mRNA [1]) was 2%.

For “435745 (antisense eG*eG*dG*dA*dG*d[5mC]*dT*dA*d[5mC]*dA*dG*d[5mC]*e[5mC]*eT) [compound 435745]”, the “% inhibition of human Factor 7 mRNA” value (human Factor 7 mRNA [1]) was 0%.

“435714 (antisense eA*e[5mC]*dT*d[5mC]*dG*dA*dT*dG*dT*dA*d[5mC]*dT*eG*eG) [compound 435714]” was tested, and the “% inhibition of human Factor 7 mRNA” value (human Factor 7 mRNA [1]) was 3%.

With “435666 (antisense eG*eG*dT*dT*dT*dG*d[5mC]*dT*dG*dG*d[5mC]*dA*eT*eT) [compound 435666]” the “% inhibition of human Factor 7 mRNA” value (human Factor 7 mRNA [1]) was 71%.

In the case of “435483 (antisense e[5mC]*eT*dG*dG*dG*dT*d[5mC]*dA*dT*d[5mC]*dA*dG*e[5mC]*e[5mC]) [compound 435483]”, the “% inhibition of human Factor 7 mRNA” value (human Factor 7 mRNA [1]) is reported as 82%.

For “435828 (antisense eG*eA*d[5mC]*d[5mC]*dT*dG*d[5mC]*d[5mC]*d[5mC]*dA*dT*dT*eT*eT) [compound 435828]”, the “% inhibition of human Factor 7 mRNA” value (human Factor 7 mRNA [1]) was 0%.

With “435680 (antisense eG*eT*dG*d[5mC]*dT*d[5mC]*dG*d[5mC]*dT*dG*dA*dG*eG*eT) [compound 435680]” the “% inhibition of human Factor 7 mRNA” value (human Factor 7 mRNA [1]) was 52%.

With “435817 (antisense e[5mC]*eT*dG*dA*dG*d[5mC]*dT*dT*dG*dG*d[5mC]*dA*e[5mC]*e[5mC]) [compound 435817]” the “% inhibition of human Factor 7 mRNA” value (human Factor 7 mRNA [1]) was 39%.

“435825 (antisense e[5mC]*eT*dG*dG*dT*dT*dT*dT*dG*dG*dA*dG*eG*eA) [compound 435825]” was tested, and the “% inhibition of human Factor 7 mRNA” value (human Factor 7 mRNA [1]) was 0%.

“435760 (antisense eT*e[5mC]*dT*dT*dG*dG*dG*dT*dG*dT*dG*dG*eA*eT) [compound 435760]” was tested, and the “% inhibition of human Factor 7 mRNA” value (human Factor 7 mRNA [1]) was 17%.

With “416455 (antisense e[5mC]*eG*e[5mC]*e[5mC]*eG*dG*d[5mC]*dT*d[5mC]*dT*dG*d[5mC]*dT*d[5mC]*dA*eT*e[5mC]*e[5mC]*e[5mC]*e[5mC]) [compound 416455]” the “% Inhibition of human Factor 7 mRNA levels” value (human Factor 7 mRNA [2]; [4]) was 72%, the “% Inhibition of human Factor 7 mRNA levels” value (human Factor 7 mRNA [2]; gapmers targeted to nucleobases 13760 to 13789 of SEQ ID NO: 1 (Table 10)) was 51% and the “percent inhibition of Factor 7 mRNA, 6.25 nM” value (“percent inhibition … 6.25 nM” for short) (human Factor 7 mRNA [3]; Example 5) was 28%. The “percent inhibition of Factor 7 mRNA, 12.5 nM” value (“percent inhibition … 12.5 nM” below) (human Factor 7 mRNA [3]; Example 5) was 44%, the “percent inhibition of Factor 7 mRNA, 25.0 nM” value (shortened to “percent inhibition … 25.0 nM”) (human Factor 7 mRNA [3]; Example 5) was 64% and the “percent inhibition of Factor 7 mRNA, 50.0 nM” value (“percent inhibition … 50.0 nM” for short) (human Factor 7 mRNA [3]; Example 5) was 78%. The “percent inhibition of Factor 7 mRNA, 100.0 nM” value (“percent inhibition … 100.0 nM” below) (human Factor 7 mRNA [3]; Example 5) was 87%.

For “416446 (antisense eG*eG*eT*e[5mC]*eA*d[5mC]*dT*dG*d[5mC]*dA*dG*dT*dA*d[5mC]*dT*eG*e[5mC]*eT*e[5mC]*eA) [compound 416446]”, the “% Inhibition of human Factor 7 mRNA levels” value (human Factor 7 mRNA [2]; [4]) was 64%, the “percent inhibition … 6.25 nM” value (human Factor 7 mRNA [3]; Example 5) was 25% and the “percent inhibition … 12.5 nM” value (human Factor 7 mRNA [3]; Example 5) was 24%. For the same substance, the “percent inhibition … 25.0 nM” value (human Factor 7 mRNA [3]; Example 5) was 50%, the “percent inhibition … 50.0 nM” value (human Factor 7 mRNA [3]; Example 5) was 69% and the “percent inhibition … 100.0 nM” value (human Factor 7 mRNA [3]; Example 5) was 64%.

For “416477 (antisense e[5mC]*eA*eG*e[5mC]*e[5mC]*dT*dG*dA*dG*dG*d[5mC]*d[5mC]*dA*dG*d[5mC]*eA*eG*eA*eT*e[5mC]) [compound 416477]”, the “% Inhibition of human Factor 7 mRNA levels” value (human Factor 7 mRNA [2]; [4]) was 74%, the “% Inhibition of human Factor 7 mRNA levels” value (human Factor 7 mRNA [2]; gapmers targeted to nucleobases 14707 to 14732 of SEQ ID NO: 1 (Table 11)) was 71% and the “percent inhibition … 6.25 nM” value (human Factor 7 mRNA [3]; Example 5) was 21%. For the same substance, the “percent inhibition … 12.5 nM” value (human Factor 7 mRNA [3]; Example 5) was 46%, the “percent inhibition … 25.0 nM” value (human Factor 7 mRNA [3]; Example 5) was 64% and the “percent inhibition … 50.0 nM” value (human Factor 7 mRNA [3]; Example 5) was 78%. For the same substance, the “percent inhibition … 100.0 nM” value (human Factor 7 mRNA [3]; Example 5) was 87%.

“407910 (antisense eA*eG*eT*e[5mC]*e[5mC]*dT*dT*dG*d[5mC]*dT*dG*d[5mC]*d[5mC]*dA*dT*e[5mC]*e[5mC]*eG*eA*eG) [compound 407910]” was tested, and the “% Inhibition (human Factor 7 mRNA)” value (human Factor 7 mRNA [2]; Example 1, lipofectin, 50 nM, ~24 h, relative to untreated control cells) was 86%, the “% Inhibition of human Factor 7 mRNA levels” value (human Factor 7 mRNA [2]; [4]) was 72% and the “percent inhibition of Factor 7 mRNA, 3.125 nM” value (human Factor 7 mRNA [3]; Example 2, 3.125 nM) was 31%. For the same substance, the “percent inhibition … 6.25 nM” value (human Factor 7 mRNA [3]; Example 2) was 44%, the “percent inhibition … 12.5 nM” value (human Factor 7 mRNA [3]; Example 2) was 69% and the “percent inhibition … 25.0 nM” value (human Factor 7 mRNA [3]; Example 2) was 68%. For the same substance, the “percent inhibition … 50.0 nM” value (human Factor 7 mRNA [3]; Example 2) was 82% and the “percent inhibition … 100.0 nM” value (human Factor 7 mRNA [3]; Example 2) was 89%.
